{
  "source": "ChEMBL document CHEMBL1201862",
  "about": "“PubChem BioAssay data set” (2004)",
  "key": {"[1]": {"assay": "insulin promoter down-regulators in MIN6 cells, imaging, high-content screening, mouse beta cells (AID 1628)", "type": "functional"}, "[2]": {"assay": "Vero E6 cell cytotoxicity, dose response, cytotoxicity control for non-replicating M. tuberculosis project, secondary assay (AID 492998)", "type": "functional, VeroE6", "conditions": "Vero C1008"}, "[3]": {"assay": "HepG2 cell cytotoxicity, dose response, cytotoxicity control for Shn3 inhibitor project, CellTiter-Glo, cherry-picked (AID 624134)", "type": "functional, cell-based"}, "[4]": {"assay": "control 3'UTR Renilla luciferase suppression, dose response, counter-screen for Shn3 inhibitor project, cell-based, Clone20-Shn3RL, cherry-picked (AID 624133)", "type": "functional"}, "[5]": {"assay": "cells", "type": "functional"}, "[6]": {"molecular_target": "T1, Corticotropin-releasing factor receptor 2/Corticotropin-releasing factor-binding protein (Homo sapiens, UniProt P24387+Q13324)", "T1 sequence (Q13324 whole entry)": "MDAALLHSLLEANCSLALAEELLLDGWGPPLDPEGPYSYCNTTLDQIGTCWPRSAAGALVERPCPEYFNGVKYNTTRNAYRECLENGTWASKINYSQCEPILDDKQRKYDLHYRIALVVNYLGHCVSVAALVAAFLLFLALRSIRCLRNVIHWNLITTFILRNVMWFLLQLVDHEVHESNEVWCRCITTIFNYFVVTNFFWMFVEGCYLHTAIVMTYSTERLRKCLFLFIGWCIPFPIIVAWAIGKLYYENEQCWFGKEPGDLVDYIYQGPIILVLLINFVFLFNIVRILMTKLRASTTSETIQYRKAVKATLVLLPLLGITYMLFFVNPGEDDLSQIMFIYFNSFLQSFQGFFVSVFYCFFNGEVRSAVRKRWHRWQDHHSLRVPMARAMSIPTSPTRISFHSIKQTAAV", "T1 sequence (P24387 whole entry)": "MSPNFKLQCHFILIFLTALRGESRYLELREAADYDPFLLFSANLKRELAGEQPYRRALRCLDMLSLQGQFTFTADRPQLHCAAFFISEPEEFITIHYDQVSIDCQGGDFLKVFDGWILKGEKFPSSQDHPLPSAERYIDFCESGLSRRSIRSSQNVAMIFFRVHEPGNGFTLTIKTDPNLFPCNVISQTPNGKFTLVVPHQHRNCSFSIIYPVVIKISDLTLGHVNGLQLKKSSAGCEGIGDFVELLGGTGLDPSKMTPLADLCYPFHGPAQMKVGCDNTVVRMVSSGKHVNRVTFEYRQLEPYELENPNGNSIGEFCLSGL", "assay": "Dose Response confirmation of uHTS hits for small molecule antagonists of the CRF-binding protein and CRF-R2 receptor complex.", "type": "functional", "conditions": "read-out: IC50_Mean"}, "[7]": {"assay": "THP-1 cell cytotoxicity, dose response, cytotoxicity control for non-replicating M. tuberculosis project (AID 489025)", "type": "functional"}, "[8]": {"molecular_target": "T1, Corticotropin-releasing factor receptor 2/Corticotropin-releasing factor-binding protein", "assay": "activators of CRF receptor 2 with binding protein – uHTS hits, confirmation (AID 602473)", "type": "functional", "conditions": "read-out: EC50_Mean"}, "[9]": {"assay": "Shn3 3'UTR reporter inhibitors, dose response, cell-based, Clone20 osteoblasts, firefly luciferase, cherry-picked (AID 624132)", "type": "functional"}, "[10]": {"assay": "cytotoxicity in MIN6 insulinoma cells, dose response, cytotoxicity control, cell-based, mouse insulinoma (AID 2122);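 also: confirmatory high-throughput counterscreen run to flag cytotoxic compounds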", "type": "functional"}, "[11]": {"assay": "HepG2 cell cytotoxicity, dose response, cytotoxicity control for non-replicating M. tuberculosis project (AID 489018)", "type": "functional", "conditions": "Mycobacterium tuberculosis"}, "[12]": {"molecular_target": "T2, Cytochrome P450 1A2 (Homo sapiens, UniProt P05177)", "T2 sequence (P05177 whole entry)": "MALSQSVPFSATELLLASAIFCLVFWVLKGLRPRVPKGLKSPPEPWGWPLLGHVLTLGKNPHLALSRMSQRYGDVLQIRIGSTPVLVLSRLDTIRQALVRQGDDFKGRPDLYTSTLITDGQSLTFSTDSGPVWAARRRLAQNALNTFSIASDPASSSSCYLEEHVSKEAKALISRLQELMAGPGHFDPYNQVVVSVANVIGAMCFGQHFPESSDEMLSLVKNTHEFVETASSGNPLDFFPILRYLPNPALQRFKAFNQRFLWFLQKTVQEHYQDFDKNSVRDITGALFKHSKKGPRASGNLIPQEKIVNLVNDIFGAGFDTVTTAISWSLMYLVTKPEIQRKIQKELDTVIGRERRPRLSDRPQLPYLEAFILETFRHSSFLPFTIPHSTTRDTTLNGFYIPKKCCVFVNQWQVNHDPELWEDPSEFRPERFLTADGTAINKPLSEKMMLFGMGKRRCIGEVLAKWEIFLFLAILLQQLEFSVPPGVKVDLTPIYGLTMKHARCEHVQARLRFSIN"}, "[13]": {"molecular_target": "Cytochrome P450 3A4 (Homo sapiens, UniProt P08684)", "sequence (P08684 whole entry)": "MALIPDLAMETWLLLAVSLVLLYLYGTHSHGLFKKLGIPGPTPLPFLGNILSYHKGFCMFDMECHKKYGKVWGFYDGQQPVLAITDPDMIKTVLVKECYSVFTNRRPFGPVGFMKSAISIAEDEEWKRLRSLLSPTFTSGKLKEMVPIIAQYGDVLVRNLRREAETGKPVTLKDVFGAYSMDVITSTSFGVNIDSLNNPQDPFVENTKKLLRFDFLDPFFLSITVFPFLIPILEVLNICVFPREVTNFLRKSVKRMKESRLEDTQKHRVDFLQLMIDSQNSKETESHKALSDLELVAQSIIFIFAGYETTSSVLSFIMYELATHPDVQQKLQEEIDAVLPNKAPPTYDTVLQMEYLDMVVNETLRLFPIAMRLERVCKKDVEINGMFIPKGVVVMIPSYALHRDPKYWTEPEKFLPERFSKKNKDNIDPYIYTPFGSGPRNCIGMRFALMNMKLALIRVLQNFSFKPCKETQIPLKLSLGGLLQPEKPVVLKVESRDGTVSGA"}, "[14]": {"molecular_target": "Mitogen-activated protein kinase 10 (Homo sapiens, UniProt P53779)", "sequence (P53779 whole entry)": "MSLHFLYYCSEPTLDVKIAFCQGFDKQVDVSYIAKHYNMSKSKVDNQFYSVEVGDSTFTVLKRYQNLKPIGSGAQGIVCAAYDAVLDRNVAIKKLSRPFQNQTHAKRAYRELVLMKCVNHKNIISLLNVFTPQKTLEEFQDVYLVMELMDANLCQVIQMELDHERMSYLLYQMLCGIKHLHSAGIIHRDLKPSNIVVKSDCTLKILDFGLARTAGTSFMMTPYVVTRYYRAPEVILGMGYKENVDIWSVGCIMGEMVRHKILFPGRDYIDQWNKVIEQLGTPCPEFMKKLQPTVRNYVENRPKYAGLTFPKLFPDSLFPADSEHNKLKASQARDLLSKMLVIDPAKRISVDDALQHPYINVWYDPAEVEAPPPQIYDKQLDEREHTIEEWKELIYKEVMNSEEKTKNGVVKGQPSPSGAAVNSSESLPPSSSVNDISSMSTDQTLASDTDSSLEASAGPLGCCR", "assay": "Dose response biochemical screening assay for inhibitors of c-Jun N-Terminal Kinase 3 (JNK3). [Related pubchem assays: 746 ]"}, "[15]": {"molecular_target": "Peroxisome proliferator-activated receptor gamma/Nuclear receptor coactivator 3 (Homo sapiens, UniProt P37231)", "sequence (P37231 whole entry)": "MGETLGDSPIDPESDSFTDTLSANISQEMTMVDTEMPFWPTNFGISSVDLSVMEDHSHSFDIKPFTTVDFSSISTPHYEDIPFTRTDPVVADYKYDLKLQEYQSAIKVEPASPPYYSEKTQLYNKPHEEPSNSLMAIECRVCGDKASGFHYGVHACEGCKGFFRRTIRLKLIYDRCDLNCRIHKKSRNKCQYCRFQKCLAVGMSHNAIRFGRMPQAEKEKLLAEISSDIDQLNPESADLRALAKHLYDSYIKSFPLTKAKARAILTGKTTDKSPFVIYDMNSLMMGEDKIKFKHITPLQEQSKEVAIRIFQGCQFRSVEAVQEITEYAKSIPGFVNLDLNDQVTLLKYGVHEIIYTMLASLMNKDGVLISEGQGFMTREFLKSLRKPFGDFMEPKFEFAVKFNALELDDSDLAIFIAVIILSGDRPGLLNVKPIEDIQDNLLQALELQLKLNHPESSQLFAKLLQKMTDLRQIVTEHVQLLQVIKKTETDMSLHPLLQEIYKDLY", "sequence (Q9Y6Q9 whole entry, further chain)": "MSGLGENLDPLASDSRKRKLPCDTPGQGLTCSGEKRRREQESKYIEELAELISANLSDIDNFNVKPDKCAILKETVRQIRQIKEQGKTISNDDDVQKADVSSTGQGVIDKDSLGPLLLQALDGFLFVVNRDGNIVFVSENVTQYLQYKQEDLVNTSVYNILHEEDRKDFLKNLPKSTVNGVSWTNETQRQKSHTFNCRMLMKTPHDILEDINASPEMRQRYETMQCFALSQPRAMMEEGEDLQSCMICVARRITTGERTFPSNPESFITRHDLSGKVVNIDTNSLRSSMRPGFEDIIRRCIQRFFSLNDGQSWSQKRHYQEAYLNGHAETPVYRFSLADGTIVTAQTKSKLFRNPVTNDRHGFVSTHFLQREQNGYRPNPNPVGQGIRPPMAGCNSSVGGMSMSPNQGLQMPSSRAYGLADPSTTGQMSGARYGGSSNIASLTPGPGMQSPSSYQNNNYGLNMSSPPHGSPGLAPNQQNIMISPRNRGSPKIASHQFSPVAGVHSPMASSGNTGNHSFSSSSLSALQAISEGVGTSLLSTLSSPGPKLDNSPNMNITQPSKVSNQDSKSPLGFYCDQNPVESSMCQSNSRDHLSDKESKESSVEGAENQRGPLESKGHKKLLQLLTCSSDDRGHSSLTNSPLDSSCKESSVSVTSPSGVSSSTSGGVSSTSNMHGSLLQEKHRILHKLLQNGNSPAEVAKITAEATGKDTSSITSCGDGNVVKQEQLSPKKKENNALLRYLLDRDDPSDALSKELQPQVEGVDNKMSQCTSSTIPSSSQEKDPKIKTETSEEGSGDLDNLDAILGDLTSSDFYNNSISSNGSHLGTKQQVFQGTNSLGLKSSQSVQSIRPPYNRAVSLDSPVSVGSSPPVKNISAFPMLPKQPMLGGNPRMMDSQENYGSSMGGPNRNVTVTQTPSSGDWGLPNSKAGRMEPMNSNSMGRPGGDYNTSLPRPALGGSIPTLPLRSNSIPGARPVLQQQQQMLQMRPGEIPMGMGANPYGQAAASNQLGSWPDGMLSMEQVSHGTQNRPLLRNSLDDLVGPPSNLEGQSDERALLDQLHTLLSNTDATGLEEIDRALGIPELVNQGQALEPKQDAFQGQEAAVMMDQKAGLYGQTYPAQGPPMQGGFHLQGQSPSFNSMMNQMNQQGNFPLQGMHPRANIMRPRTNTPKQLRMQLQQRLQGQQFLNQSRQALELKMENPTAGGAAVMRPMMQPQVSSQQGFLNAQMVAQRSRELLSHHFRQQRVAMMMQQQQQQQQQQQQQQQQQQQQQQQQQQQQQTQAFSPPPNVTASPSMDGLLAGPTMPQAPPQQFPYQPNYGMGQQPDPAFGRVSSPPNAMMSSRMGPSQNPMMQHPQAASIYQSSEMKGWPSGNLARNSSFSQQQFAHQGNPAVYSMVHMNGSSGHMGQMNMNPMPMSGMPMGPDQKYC", "assay": "(§1) TR-FRET dose response biochemical High Throughput Screening assay for agonists of the steroid receptor coactivator 3 (SRC-3) recruitment by the peroxisome proliferator-activated receptor gamma (PPAR gamma): non-selective agonists. [Related pubchem assays: 1301 (Confirmation screen.), 1048 (Primary screen.)]", "type": "functional"}, "[16]": {"molecular_target": "Major prion protein (Homo sapiens, UniProt P04156)", "type": "functional, cell-based"}, "[17]": {"molecular_target": "Peroxisome proliferator-activated receptor gamma/Nuclear receptor coactivator 1 (Homo sapiens, UniProt P37231)", "sequence (P37231 whole entry)": "as the sequence (P37231 whole entry) above", "sequence (Q15788 whole entry, further chain)": "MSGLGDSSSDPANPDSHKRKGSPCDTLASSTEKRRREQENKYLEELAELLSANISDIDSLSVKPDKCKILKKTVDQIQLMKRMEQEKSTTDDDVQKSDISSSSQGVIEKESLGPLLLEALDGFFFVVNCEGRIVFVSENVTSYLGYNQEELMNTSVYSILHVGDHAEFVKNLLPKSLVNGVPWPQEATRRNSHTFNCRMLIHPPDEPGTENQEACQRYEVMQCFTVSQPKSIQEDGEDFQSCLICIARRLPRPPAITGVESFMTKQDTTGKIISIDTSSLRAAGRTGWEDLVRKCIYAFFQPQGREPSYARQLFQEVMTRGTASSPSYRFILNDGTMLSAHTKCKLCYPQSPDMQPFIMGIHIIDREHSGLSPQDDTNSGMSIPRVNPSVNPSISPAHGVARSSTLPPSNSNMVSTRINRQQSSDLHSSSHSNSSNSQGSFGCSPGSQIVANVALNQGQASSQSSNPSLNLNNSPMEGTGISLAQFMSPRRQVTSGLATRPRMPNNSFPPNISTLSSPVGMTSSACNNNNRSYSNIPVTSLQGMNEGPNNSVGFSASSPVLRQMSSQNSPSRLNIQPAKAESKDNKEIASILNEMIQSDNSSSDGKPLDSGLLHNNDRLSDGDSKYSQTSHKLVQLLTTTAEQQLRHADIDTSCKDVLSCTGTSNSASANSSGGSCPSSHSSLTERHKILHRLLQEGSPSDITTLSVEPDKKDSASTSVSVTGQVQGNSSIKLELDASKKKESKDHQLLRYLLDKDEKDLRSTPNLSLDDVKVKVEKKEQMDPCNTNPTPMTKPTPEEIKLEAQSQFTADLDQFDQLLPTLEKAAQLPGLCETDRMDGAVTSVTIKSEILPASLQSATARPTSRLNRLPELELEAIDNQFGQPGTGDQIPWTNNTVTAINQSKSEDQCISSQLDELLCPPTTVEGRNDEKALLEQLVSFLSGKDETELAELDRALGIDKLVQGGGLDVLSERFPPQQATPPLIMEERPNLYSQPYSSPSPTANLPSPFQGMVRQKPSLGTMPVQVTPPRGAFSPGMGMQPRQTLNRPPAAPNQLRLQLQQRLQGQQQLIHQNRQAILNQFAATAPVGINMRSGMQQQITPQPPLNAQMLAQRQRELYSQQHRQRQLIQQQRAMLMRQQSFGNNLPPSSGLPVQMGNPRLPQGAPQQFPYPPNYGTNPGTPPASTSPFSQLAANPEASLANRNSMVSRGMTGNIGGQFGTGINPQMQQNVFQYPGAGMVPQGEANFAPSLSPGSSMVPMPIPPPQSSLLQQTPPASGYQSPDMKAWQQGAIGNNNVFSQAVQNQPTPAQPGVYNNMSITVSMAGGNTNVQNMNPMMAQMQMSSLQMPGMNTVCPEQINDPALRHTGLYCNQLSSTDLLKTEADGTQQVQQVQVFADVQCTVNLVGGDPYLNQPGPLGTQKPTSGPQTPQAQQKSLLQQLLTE", "assay": "as §1, with “1 (SRC-1)” for “3 (SRC-3)”, “assays (depositor defined):AID1300, AID1808, AID504735, AID631]” for “assays: 1301 (Confirmation screen.), 1048 (Primary screen.)]”", "type": "protein assay"}, "[18]": {"assay": "cells"}, "[19]": {"molecular_target": "Peroxisome proliferator-activated receptor gamma/Nuclear receptor coactivator 2 (Homo sapiens, UniProt P37231)", "assay": "TR-FRET dose response biochemical High Throughput Screening assay for agonists of the steroid receptor coactivator 2 (SRC-2) recruitment by the peroxisome proliferator-activated receptor gamma (PPAR gamma): non-selective agonists. [Related pubchem assays: 1297, 1032 ]", "type": "functional"}, "[20]": {"tested_on": "HEK293", "assay": "cells", "type": "functional, cell-based", "conditions": "Homo sapiens"}, "[21]": {"tested_on": "HEK293", "assay": "NOD2 signaling inhibitors in MDP-stimulated cells, cell-based, uHTS, luminescence (AID 2001)", "type": "functional", "conditions": "Homo sapiens"}, "[22]": {"tested_on": "HEK293", "assay": "NOD1 signaling inhibitors, primary screen, cell-based, luminescence, uHTS (AID 1578)", "type": "functional", "conditions": "Homo sapiens"}, "[23]": {"tested_on": "HEK293", "assay": "cells", "type": "functional, cell-based", "conditions": "Homo sapiens", "remark": "listed apart in the source"}, "[24]": {"molecular_target": "Heat shock protein HSP 90-alpha (Homo sapiens, UniProt P07900)", "type": "functional, organism-based"}, "[25]": {"molecular_target": "T3, Ubiquitin-conjugating enzyme E2 N (Homo sapiens, UniProt P61088)", "T3 sequence (P61088 whole entry)": "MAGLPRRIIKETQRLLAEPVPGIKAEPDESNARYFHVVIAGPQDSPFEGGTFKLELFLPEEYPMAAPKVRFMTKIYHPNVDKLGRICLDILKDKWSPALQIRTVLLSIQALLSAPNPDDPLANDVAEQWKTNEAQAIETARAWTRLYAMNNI", "type": "functional"}, "[26]": {"molecular_target": "T4, DNA repair protein RAD52 homolog (Homo sapiens, UniProt P43351)", "T4 sequence (P43351 whole entry)": "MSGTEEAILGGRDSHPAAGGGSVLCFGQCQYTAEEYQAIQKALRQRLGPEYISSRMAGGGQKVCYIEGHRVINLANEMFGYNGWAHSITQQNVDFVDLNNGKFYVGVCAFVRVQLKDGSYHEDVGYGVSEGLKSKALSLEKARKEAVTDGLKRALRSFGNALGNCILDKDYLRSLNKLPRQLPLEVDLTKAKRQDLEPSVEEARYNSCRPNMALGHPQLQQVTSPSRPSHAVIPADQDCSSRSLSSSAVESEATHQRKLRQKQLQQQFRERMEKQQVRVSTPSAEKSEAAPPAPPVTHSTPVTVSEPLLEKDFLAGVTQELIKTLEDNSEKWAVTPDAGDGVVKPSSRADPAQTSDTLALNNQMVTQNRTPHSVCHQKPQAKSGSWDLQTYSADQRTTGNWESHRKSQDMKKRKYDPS", "type": "functional, biochemical"}, "[27]": {"assay": "growth suppression of beta-catenin-knockout colon cells, dose response, cell-based, HCT116, human colon tumor (AID 1045)", "type": "functional"}, "[28]": {"assay": "growth suppression of PTEN-null colon cells, dose response, cell-based, HCT116 PTEN knockout (AID 1047)", "type": "functional"}, "[29]": {"molecular_target": "T5, Bcl-2-related protein A1 (Mus musculus, UniProt Q07440)", "T5 sequence (Q07440 whole entry)": "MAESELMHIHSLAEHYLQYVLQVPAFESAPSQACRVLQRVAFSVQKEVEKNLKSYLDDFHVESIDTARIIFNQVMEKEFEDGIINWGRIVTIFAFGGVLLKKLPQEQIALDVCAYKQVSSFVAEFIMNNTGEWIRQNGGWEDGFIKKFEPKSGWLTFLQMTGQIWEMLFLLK", "type": "functional"}, "[30]": {"assay": "HEp-2 cell cytotoxicity, dose response, cytotoxicity control for RSV inhibitor project, HTS (AID 2410)", "type": "functional", "conditions": "human respiratory syncytial virus"}, "[31]": {"molecular_target": "T3, Ubiquitin-conjugating enzyme E2 N", "type": "functional", "remark": "listed apart in the source"}},
  "note": "Calls of active or inactive are those of the source.",
  "data": [
    {"smiles": "Cc1cc(C)nc(N=C(N)Nc2ccc(-c3ccccc3)cc2)n1", "values": [
      {"measurement": "IC50", "setting": "[1]", "result": "1.56 µM (active)"},
      {"measurement": "CC50", "setting": "[2]", "result": "> 20 µM (active)"},
      {"measurement": "AC50", "setting": "[3]", "result": "> 70 µM (inactive)"},
      {"measurement": "AC50", "setting": "[4]", "result": "22.6 µM (active)"},
      {"measurement": "IC50", "setting": "[5]", "result": "39 µM (active)"},
      {"measurement": "IC50", "setting": "[6]", "result": "> 47.1 µM (inactive)"},
      {"measurement": "CC50", "setting": "[7]", "result": "9.89 µM (active)"},
      {"measurement": "EC50", "setting": "[8]", "result": "31.7 µM (active)"},
      {"measurement": "AC50", "setting": "[9]", "result": "4.45 µM (active)"},
      {"measurement": "IC50", "setting": "[10]", "result": "1.36 µM (active)"},
      {"measurement": "CC50", "setting": "[11]", "result": "18.2 µM (active)"}
    ]},
    {"smiles": "CCCN(CCc1ccccc1)[C@H]1CCc2c(O)cccc2C1", "values": [
      {"measurement": "AC50", "setting": "[12]", "result": "12.6 µM (inconclusive)"},
      {"measurement": "AC50", "setting": "[13]", "result": "inconclusive"}
    ]},
    {"smiles": "COc1ccc(Cl)cc1-c1nnc(S)o1", "values": [
      {"measurement": "IC50", "setting": "[14]", "result": "16.2 µM (not active)"},
      {"measurement": "EC50", "setting": "[15]", "result": "> 79.4 µM (not active)"},
      {"measurement": "IC50", "setting": "[16]", "result": "2.08 µM (active)"},
      {"measurement": "EC50", "setting": "[17]", "result": "3.67 µM (active)"},
      {"measurement": "IC50", "setting": "[18]", "result": "> 138 µM (inactive)"},
      {"measurement": "EC50", "setting": "[19]", "result": "3.4 µM (active)"}
    ]},
    {"smiles": "CCN(CC)S(=O)(=O)c1cccc(NC(=O)c2ccc(Br)cc2)c1", "values": [
      {"measurement": "IC50", "setting": "[20]", "result": "10.1 µM (active)"},
      {"measurement": "IC50", "setting": "[21]", "result": "7.75 µM (active)"},
      {"measurement": "EC50", "setting": "[22]", "result": "11.6 µM (active)"},
      {"measurement": "IC50", "setting": "[23]", "result": "14.1 µM (active)"},
      {"measurement": "AC50", "setting": "[24]", "result": "3.55 µM (active)"}
    ]},
    {"smiles": "Cc1ccc(C)c(OCC(O)CN2CCN(CCN3C(=O)c4cccc5cccc(c45)C3=O)CC2)c1", "note": "(stereo unspecified)", "values": [
      {"measurement": "IC50", "setting": "[25]", "result": "7.55 µM (active)"},
      {"measurement": "AC50", "setting": "[26]", "result": "7.35 µM (active)"},
      {"measurement": "EC50", "setting": "[27]", "result": "3.71 µM (active)"},
      {"measurement": "EC50", "setting": "[28]", "result": "6.21 µM (active)"},
      {"measurement": "IC50", "setting": "[29]", "result": "> 20 µM (inactive)"},
      {"measurement": "CC50", "setting": "[30]", "result": "15.8 µM (active)"},
      {"measurement": "IC50", "setting": "[31]", "result": "9.34 µM (active)"}
    ]}
  ]
}
